Measured values published in patent US9629822B2, “Flavonoid based antiviral targets” (UNIVERSITY OF CENTRAL FLORIDA RESEARCH FOUNDATION, INC., priority 2012, dated 2017).

test system: CHO cells; assay: CHO cell toxicity, MTS assay, 48 h; format: cell-based, Chinese hamster; conditions: Cricetulus griseus, CHO, 37° C., MTS reagent, read-out: CHO 48 h IC50 value
Summary of the method: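 CHO cells plated at 10,000 cells/mL, incubated overnight, then exposed to drug (final DMSO <1%) for 48 h at 37 °C, 5% CO2, in triplicate. MTS added for a further 4 h; absorbance read at 490 nm. IC50 taken from relative A490 versus drug concentration.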

SMILES	IC50
COc1ccc(Br)cc1-c1oc2ccccc2c(=O)c1O [Compound 9b, 2-(5-Bromo-2-methoxyphenyl)-3-hydroxy-4H-chromen-4-one]	88.5 ± 10.1 µM
COc1ccc(Cl)cc1-c1oc2ccccc2c(=O)c1O [Compound 9h, 2-(5-chloro-2-methoxyphenyl)-3-hydroxy-4H-chromen-4-one]	25 ± 2.2 µM

test system: HIV-1 BaL; assay: Anti-HIV assay (luciferase, HIV-1 BaL infection); format: cell-based; conditions: 1.25 μM, Experiment 2B
Summary of the method: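 Cells infected with HIV-1 BaL at 2 ng/mL p24 (MOI approx 0.02) in compound presence. Infection read out by luciferase.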

SMILES	RLU (relative luciferase units)
COc1ccc(Cl)cc1-c1oc2ccccc2c(=O)c1O [Compound 9h, 2-(5-chloro-2-methoxyphenyl)-3-hydroxy-4H-chromen-4-one]	1.61 RLU

same assay, conditions: 2.5 μM, Experiment 2B

SMILES	RLU (relative luciferase units)
COc1ccc(Cl)cc1-c1oc2ccccc2c(=O)c1O [Compound 9h, 2-(5-chloro-2-methoxyphenyl)-3-hydroxy-4H-chromen-4-one]	16.44 RLU

same assay, conditions: 5 μM, Experiment 2B

SMILES	RLU (relative luciferase units)
COc1ccc(Br)cc1-c1oc2ccccc2c(=O)c1O [Compound 9b, 2-(5-Bromo-2-methoxyphenyl)-3-hydroxy-4H-chromen-4-one]	12.99 RLU
COc1ccc(Cl)cc1-c1oc2ccccc2c(=O)c1O [Compound 9h, 2-(5-chloro-2-methoxyphenyl)-3-hydroxy-4H-chromen-4-one]	18.32 RLU

same assay, conditions: 10 μM, Experiment 1B, 2 ng/mL p24 HIV-1 BaL

SMILES	RLU (relative luciferase units)
COc1ccc(Br)cc1-c1oc2ccccc2c(=O)c1O [Compound 9b, 2-(5-Bromo-2-methoxyphenyl)-3-hydroxy-4H-chromen-4-one]	736.7 RLU
COc1ccc(Cl)cc1-c1oc2ccccc2c(=O)c1O [Compound 9h, 2-(5-chloro-2-methoxyphenyl)-3-hydroxy-4H-chromen-4-one]	367.6 RLU

same assay, conditions: 10 μM, Experiment 2B

SMILES	RLU (relative luciferase units)
COc1ccc(Br)cc1-c1oc2ccccc2c(=O)c1O [Compound 9b, 2-(5-Bromo-2-methoxyphenyl)-3-hydroxy-4H-chromen-4-one]	23.85 RLU
COc1ccc(Cl)cc1-c1oc2ccccc2c(=O)c1O [Compound 9h, 2-(5-chloro-2-methoxyphenyl)-3-hydroxy-4H-chromen-4-one]	49.04 RLU

same assay, conditions: 20 μM, Experiment 2B

SMILES	RLU (relative luciferase units)
COc1ccc(Br)cc1-c1oc2ccccc2c(=O)c1O [Compound 9b, 2-(5-Bromo-2-methoxyphenyl)-3-hydroxy-4H-chromen-4-one]	32.82 RLU
COc1ccc(Cl)cc1-c1oc2ccccc2c(=O)c1O [Compound 9h, 2-(5-chloro-2-methoxyphenyl)-3-hydroxy-4H-chromen-4-one]	20.14 RLU

same assay, conditions: 40 μM, Experiment 2B

SMILES	RLU (relative luciferase units)
COc1ccc(Br)cc1-c1oc2ccccc2c(=O)c1O [Compound 9b, 2-(5-Bromo-2-methoxyphenyl)-3-hydroxy-4H-chromen-4-one]	47.61 RLU

same assay, conditions: 80 μM, Experiment 2B

SMILES	RLU (relative luciferase units)
COc1ccc(Br)cc1-c1oc2ccccc2c(=O)c1O [Compound 9b, 2-(5-Bromo-2-methoxyphenyl)-3-hydroxy-4H-chromen-4-one]	73.47 RLU

same assay, conditions: Human immunodeficiency virus 1, BAL, 1.25 μM, Experiment 2B

SMILES	inhibition at 1.25 µM
COc1ccc(Cl)cc1-c1oc2ccccc2c(=O)c1O [Compound 9h, 2-(5-chloro-2-methoxyphenyl)-3-hydroxy-4H-chromen-4-one]	-8.02%

same assay, conditions: Human immunodeficiency virus 1, BAL, 2.5 μM, Experiment 2B

SMILES	inhibition at 2.5 µM
COc1ccc(Cl)cc1-c1oc2ccccc2c(=O)c1O [Compound 9h, 2-(5-chloro-2-methoxyphenyl)-3-hydroxy-4H-chromen-4-one]	-10.4%

same assay, conditions: Human immunodeficiency virus 1, BAL, 5 μM, Experiment 2B

SMILES	inhibition at 5 µM
COc1ccc(Br)cc1-c1oc2ccccc2c(=O)c1O [Compound 9b, 2-(5-Bromo-2-methoxyphenyl)-3-hydroxy-4H-chromen-4-one]	-7.08%
COc1ccc(Cl)cc1-c1oc2ccccc2c(=O)c1O [Compound 9h, 2-(5-chloro-2-methoxyphenyl)-3-hydroxy-4H-chromen-4-one]	-13.9%

same assay, conditions: Human immunodeficiency virus 1, BAL, 10 μM, Experiment 1B, 2 ng/mL p24 HIV-1 BaL

SMILES	inhibition at 10 µM
COc1ccc(Br)cc1-c1oc2ccccc2c(=O)c1O [Compound 9b, 2-(5-Bromo-2-methoxyphenyl)-3-hydroxy-4H-chromen-4-one]	21.3%
COc1ccc(Cl)cc1-c1oc2ccccc2c(=O)c1O [Compound 9h, 2-(5-chloro-2-methoxyphenyl)-3-hydroxy-4H-chromen-4-one]	60.7%

same assay, conditions: Human immunodeficiency virus 1, BAL, 10 μM, Experiment 2B

SMILES	inhibition at 10 µM
COc1ccc(Br)cc1-c1oc2ccccc2c(=O)c1O [Compound 9b, 2-(5-Bromo-2-methoxyphenyl)-3-hydroxy-4H-chromen-4-one]	-19%
COc1ccc(Cl)cc1-c1oc2ccccc2c(=O)c1O [Compound 9h, 2-(5-chloro-2-methoxyphenyl)-3-hydroxy-4H-chromen-4-one]	1.57%

same assay, conditions: Human immunodeficiency virus 1, BAL, 20 μM, Experiment 2B

SMILES	inhibition at 20 µM
COc1ccc(Br)cc1-c1oc2ccccc2c(=O)c1O [Compound 9b, 2-(5-Bromo-2-methoxyphenyl)-3-hydroxy-4H-chromen-4-one]	-25.9%
COc1ccc(Cl)cc1-c1oc2ccccc2c(=O)c1O [Compound 9h, 2-(5-chloro-2-methoxyphenyl)-3-hydroxy-4H-chromen-4-one]	7.83%

same assay, conditions: Human immunodeficiency virus 1, BAL, 40 μM, Experiment 2B

SMILES	inhibition at 40 µM
COc1ccc(Br)cc1-c1oc2ccccc2c(=O)c1O [Compound 9b, 2-(5-Bromo-2-methoxyphenyl)-3-hydroxy-4H-chromen-4-one]	-29.8%

same assay, conditions: Human immunodeficiency virus 1, BAL, 80 μM, Experiment 2B

SMILES	inhibition at 80 µM
COc1ccc(Br)cc1-c1oc2ccccc2c(=O)c1O [Compound 9b, 2-(5-Bromo-2-methoxyphenyl)-3-hydroxy-4H-chromen-4-one]	13.3%

test system: not listed separately; assay: TZMbI assay for cell safety (cell viability and growth, CytoTox Glo); conditions: human, TZMbI cells, 1.25 μM, Experiment 2A; read-out: % decrease in viability compared to 0.1% DMSO vehicle based on viable cell luminescence
Description: Assays were performed below in accordance with the procedures set forth in The Journal of Immunology, 2006, 176, pp. 6900-905; AIDS Research and Human Retroviruses, 2004, 20:11, pp. 1157-1665.^32,33 TZMbI assays for cell safety were performed to identify potential anti-viral compounds. TZMbI assays for cell safety were performed to identify potential anti-viral compounds per the methods.

SMILES	cytotoxicity at 1.25 μM
COc1ccc(Cl)cc1-c1oc2ccccc2c(=O)c1O [Compound 9h, 2-(5-chloro-2-methoxyphenyl)-3-hydroxy-4H-chromen-4-one]	-8.02%

same assay, conditions: human, TZMbI cells, 2.5 μM, Experiment 2A; read-out: % decrease in viability compared to 0.1% DMSO vehicle based on viable cell luminescence

SMILES	cytotoxicity at 2.5 μM
COc1ccc(Cl)cc1-c1oc2ccccc2c(=O)c1O [Compound 9h, 2-(5-chloro-2-methoxyphenyl)-3-hydroxy-4H-chromen-4-one]	-10.4%

same assay, conditions: human, TZMbI cells, 5 μM, Experiment 2A; read-out: % decrease in viability compared to 0.1% DMSO vehicle based on viable cell luminescence

SMILES	cytotoxicity at 5 μM
COc1ccc(Br)cc1-c1oc2ccccc2c(=O)c1O [Compound 9b, 2-(5-Bromo-2-methoxyphenyl)-3-hydroxy-4H-chromen-4-one]	-7.08%
COc1ccc(Cl)cc1-c1oc2ccccc2c(=O)c1O [Compound 9h, 2-(5-chloro-2-methoxyphenyl)-3-hydroxy-4H-chromen-4-one]	-13.9%

same assay, conditions: human, TZMbI cells, 10 μM, Experiment 1A; read-out: % decrease in viability compared to 0.1% DMSO vehicle based on viable cell luminescence

SMILES	cytotoxicity at 10 μM
COc1ccc(Br)cc1-c1oc2ccccc2c(=O)c1O [Compound 9b, 2-(5-Bromo-2-methoxyphenyl)-3-hydroxy-4H-chromen-4-one]	-2.1%
COc1ccc(Cl)cc1-c1oc2ccccc2c(=O)c1O [Compound 9h, 2-(5-chloro-2-methoxyphenyl)-3-hydroxy-4H-chromen-4-one]	23.6%

same assay, conditions: human, TZMbI cells, 10 μM, Experiment 2A; read-out: % decrease in viability compared to 0.1% DMSO vehicle based on viable cell luminescence

SMILES	cytotoxicity at 10 μM
COc1ccc(Br)cc1-c1oc2ccccc2c(=O)c1O [Compound 9b, 2-(5-Bromo-2-methoxyphenyl)-3-hydroxy-4H-chromen-4-one]	-19%
COc1ccc(Cl)cc1-c1oc2ccccc2c(=O)c1O [Compound 9h, 2-(5-chloro-2-methoxyphenyl)-3-hydroxy-4H-chromen-4-one]	1.57%

same assay, conditions: human, TZMbI cells, 20 μM, Experiment 2A; read-out: % decrease in viability compared to 0.1% DMSO vehicle based on viable cell luminescence

SMILES	cytotoxicity at 20 μM
COc1ccc(Br)cc1-c1oc2ccccc2c(=O)c1O [Compound 9b, 2-(5-Bromo-2-methoxyphenyl)-3-hydroxy-4H-chromen-4-one]	-25.9%
COc1ccc(Cl)cc1-c1oc2ccccc2c(=O)c1O [Compound 9h, 2-(5-chloro-2-methoxyphenyl)-3-hydroxy-4H-chromen-4-one]	7.83%

same assay, conditions: human, TZMbI cells, 40 μM, Experiment 2A; read-out: % decrease in viability compared to 0.1% DMSO vehicle based on viable cell luminescence

SMILES	cytotoxicity at 40 μM
COc1ccc(Br)cc1-c1oc2ccccc2c(=O)c1O [Compound 9b, 2-(5-Bromo-2-methoxyphenyl)-3-hydroxy-4H-chromen-4-one]	-29.8%

same assay, conditions: human, TZMbI cells, 80 μM, Experiment 2A; read-out: % decrease in viability compared to 0.1% DMSO vehicle based on viable cell luminescence

SMILES	cytotoxicity at 80 μM
COc1ccc(Br)cc1-c1oc2ccccc2c(=O)c1O [Compound 9b, 2-(5-Bromo-2-methoxyphenyl)-3-hydroxy-4H-chromen-4-one]	13.3%

target: T1, US28 receptor (Human cytomegalovirus, UniProt P69332); assay: PathDetect trans Elk1 luciferase reporter gene assay in US28-transfected 293T HEK cells; format: cell-based, Human Cytomegalovirus (HCMV); conditions: 293T HEK cells transiently expressing US28, Elk1 reporter; NE = no effect when tested at 10 μM of compound
T1 construct: expressed in transfected cells; host or cells: HEK 293T cells, transiently transfected
Summary of the method: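 HEK293T cells transiently transfected with Elk1, Luc and US28 vector (empty pcDNA3 for mock) were dosed with compounds in DMEM/1% FBS with 1% DMSO for 20-24 h at 37° C. Bright-Glo luminescence decrease was read; EC50 is halfway between maximal response and no-compound control, by non-linear regression.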

T1 sequence (P69332 whole entry): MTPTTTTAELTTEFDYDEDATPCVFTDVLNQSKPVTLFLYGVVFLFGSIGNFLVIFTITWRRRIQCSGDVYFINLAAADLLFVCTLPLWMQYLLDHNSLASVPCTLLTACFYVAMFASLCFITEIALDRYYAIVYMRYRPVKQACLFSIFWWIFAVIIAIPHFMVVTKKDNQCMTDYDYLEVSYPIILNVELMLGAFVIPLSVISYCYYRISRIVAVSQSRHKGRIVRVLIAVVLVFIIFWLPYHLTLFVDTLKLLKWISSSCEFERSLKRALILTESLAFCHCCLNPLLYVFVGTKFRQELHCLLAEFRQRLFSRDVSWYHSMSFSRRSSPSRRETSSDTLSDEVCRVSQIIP

SMILES	EC50
COc1ccc(Br)cc1-c1oc2ccccc2c(=O)c1O [Compound 9b, 2-(5-Bromo-2-methoxyphenyl)-3-hydroxy-4H-chromen-4-one]	> 10 µM

same assay, conditions: EC50 (μM), 293T HEK cells transiently expressing US28, Elk1 reporter; NE = no effect when tested at 10 μM of compound

SMILES	EC50
COc1ccc(Br)cc1-c1oc2ccccc2c(=O)c1O [Compound 9b, 2-(5-Bromo-2-methoxyphenyl)-3-hydroxy-4H-chromen-4-one]	> 10 µM
COc1ccc(Cl)cc1-c1oc2ccccc2c(=O)c1O [Compound 9h, 2-(5-chloro-2-methoxyphenyl)-3-hydroxy-4H-chromen-4-one]	1.32 µM

same assay, conditions: Elk1 reporter, US28-transfected HEK cells

SMILES	type of activity on the US28 receptor (agonist / inverse agonist / none), in words
COc1ccc(Br)cc1-c1oc2ccccc2c(=O)c1O [Compound 9b, 2-(5-Bromo-2-methoxyphenyl)-3-hydroxy-4H-chromen-4-one]	did not show any activity
COc1ccc(Cl)cc1-c1oc2ccccc2c(=O)c1O [Compound 9h, 2-(5-chloro-2-methoxyphenyl)-3-hydroxy-4H-chromen-4-one]	inverse agonist
